Assay results as given in US4035386A, “Propynylamine-substituted dibenzo[b,f]thiepins and dibenz[b,f]oxepins” (Hoffmann-La Roche Inc., priority 1976, dated 1977).

How the values were obtained:
in vivo = details: rats, intraperitoneal; for ED50 at 6 h: rat, in vivo, ip, observed every 30 minutes over a 6-hour period, cataleptic = homolateral extremities crossed at least 10 seconds, read-out: ED50 (dose at which 50% of the animals are cataleptic); for cataleptic effect (in words): in comparison to chlorpromazine
Procedure: The following compounds were tested:
The foregoing compounds were compared to chlorpromazine, a well-known central depressant, especially well-known as a neuroleptic agent. The test animals are considered to be cataleptic when the homolateral extremities remain in the crossed position for at least 10 seconds. The number of cataleptic animals is recorded every 30 minutes over a 6-hour period.

[1] = system: homovanillinic acid (HVA); test: Determination of homovanillinic acid (HVA) in brains of treated rats; dopamine turnover in the basal ganglions; type: in vivo; details: for Increase of HVA, %: two hours before killing, untreated rats set at 100%; for activity in HVA test compared with chlorpromazine (in words): p.o., in comparison to chlorpromazine
Procedure: I. determination of Homovanillinic Acid
Two hours prior to being killed, rats are injected with the test substance.
Thereafter, the homovanillinic acid is extracted from the supernatent portion of a homogenized mixture of brains of the treated rats into butylacetate and later into an aqueous solution and is oxidized with potassium ferric cyanide to a fluorescent […]. […] The homovanillinic titer in untreated rats is arbitrarily set at 100%.

Row | SMILES | ED50 at 6 h (in vivo) [mg/kg] | cataleptic effect (in words) (in vivo) | Increase of HVA, % ([1]; 30 mg/kg p.o.) [%] | activity in HVA test compared with chlorpromazine (in words) [1] | Increase of HVA, % ([1]; 50 mg/kg p.o.) [%] | Increase of HVA, % ([1]; 20 mg/kg p.o.) [%]
1 | COc1ccc2c(c1)Sc1ccc(Cl)cc1C(C#CCN(C)C)=C2.CS(=O)(=O)O [Product C, N,N-dimethyl-3-(8-chloro-3-methoxydibenzo[b,f]thiepin-10-yl)-2-propynylamine methanesulfonate] | > 100 | no or, respectively, very weak cataleptic effect | 320 | as strong an activity as chlorpromazine |  | 
2 | CSc1ccc2c(c1)C(C#CCN(C)C)=Cc1ccccc1S2.O=C(O)/C=C\C(=O)O [Product A, N,N-dimethyl-3-[8-(methylthio)-dibenzo[b,f]thiepin-10-yl]-2-propynylamine maleate] | > 100 | no or, respectively, very weak cataleptic effect |  | as strong an activity as chlorpromazine | 330 | 
3 | CN(C)CC#CC1=Cc2ccccc2Sc2ccc(Cl)cc21.O=C(O)/C=C\C(=O)O [Product B, N,N-dimethyl-3-(8-chloro-dibenzo[b,f]thiepin-10-yl)-2-propynylamine maleate] | 100 | no or, respectively, very weak cataleptic effect |  | as strong an activity as chlorpromazine | 370 | 
4 | CN(C)CCCN1c2ccccc2Sc2ccc(Cl)cc21 [Chlorpromazine, reference compound] | 6 | does demonstrate cataleptic effects |  |  |  | 321
